Consider 32 molecules from patent US8841312B2, “Fused pyridine, pyrimidine and triazine compounds as cell cycle inhibitors” (Amgen Inc., priority 2007, dated 2014).

One experiment concerns the target Cdk4/CyclinD1 (Homo sapiens (Human), UniProt P11802). Put plainly: Cdk4 kinase inhibition assay with recombinant Cdk4/CyclinD1, Rb substrate, [33P]-ATP filter plate. The format is biochemical. The settings on record: 25 μM ATP, read-out: Cdk 4 IC50. Summed up:
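Recombinant Cdk4/CyclinD1 or Cdk6/CyclinD3 phosphorylated Rb protein with [33P]-ATP for 1 h at room temperature. Protein was TCA-precipitated on filter plates and bound radioactivity counted. IC50 by nonlinear regression.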

The target of the next experiment is Cdk6/CyclinD3 (Homo sapiens (Human), UniProt Q00534). Put plainly: Cdk6 kinase inhibition assay with recombinant Cdk6/CyclinD3, Rb substrate, [33P]-ATP filter plate. Format: biochemical. The settings on record: 25 μM ATP, read-out: Cdk 6 IC50. As for the experimental part: The Cdk4 and Cdk6 inhibitory activity of the compounds is measured with a kinase inhibition assay using recombinant Cdk4/CyclinD1 or Cdk6/CyclinD3 protein complexes. The protein substrate used in the assay is the retinoblastoma protein (Rb). The kinase reactions are carried out in a 96-well filter plate (MSDV N6B50, Millipore). […] The mixture is incubated at room temperature for 1 hour and the proteins precipitated with an equal volume of 20% TCA. The plates are washed with 10% TCA according to the manufacturer's instruction and dried at room temperature. The amount of the phosphorylated Rb is determined with a TopCount (PerkinElmer). The IC50 of a compound is determined by nonlinear regression curve fitting using software program Prism 5 (GraphPad Software).
Chain of Cdk6/CyclinD3 (Q00534 whole entry): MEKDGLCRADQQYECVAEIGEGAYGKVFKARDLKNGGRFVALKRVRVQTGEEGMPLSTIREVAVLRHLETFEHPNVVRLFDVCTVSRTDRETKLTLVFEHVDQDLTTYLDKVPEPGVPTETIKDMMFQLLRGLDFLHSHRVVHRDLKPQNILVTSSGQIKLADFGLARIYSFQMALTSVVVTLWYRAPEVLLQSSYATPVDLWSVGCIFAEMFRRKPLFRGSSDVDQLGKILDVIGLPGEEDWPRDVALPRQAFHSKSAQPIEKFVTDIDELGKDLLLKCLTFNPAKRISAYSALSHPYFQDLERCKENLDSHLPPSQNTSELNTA
Chain of Cdk6/CyclinD3 (P30281 whole entry partner): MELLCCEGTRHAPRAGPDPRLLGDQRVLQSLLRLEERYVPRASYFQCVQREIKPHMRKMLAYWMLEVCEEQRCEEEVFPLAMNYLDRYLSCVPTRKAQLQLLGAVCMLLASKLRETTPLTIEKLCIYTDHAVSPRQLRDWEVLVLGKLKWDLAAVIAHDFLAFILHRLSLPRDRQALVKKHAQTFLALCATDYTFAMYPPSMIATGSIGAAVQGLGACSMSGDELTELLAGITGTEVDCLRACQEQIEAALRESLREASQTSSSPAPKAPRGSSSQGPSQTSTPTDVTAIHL

Chain of Cdk4/CyclinD1 (P11802 whole entry): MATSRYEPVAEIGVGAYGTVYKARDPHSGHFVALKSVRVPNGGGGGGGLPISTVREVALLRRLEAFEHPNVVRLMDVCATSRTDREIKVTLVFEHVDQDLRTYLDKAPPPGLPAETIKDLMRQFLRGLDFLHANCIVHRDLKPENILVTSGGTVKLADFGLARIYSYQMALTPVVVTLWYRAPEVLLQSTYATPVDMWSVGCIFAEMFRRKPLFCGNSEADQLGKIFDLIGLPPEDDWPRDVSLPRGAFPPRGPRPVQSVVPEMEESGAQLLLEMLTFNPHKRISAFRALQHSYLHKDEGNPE
Chain of Cdk4/CyclinD1 (P24385 whole entry partner): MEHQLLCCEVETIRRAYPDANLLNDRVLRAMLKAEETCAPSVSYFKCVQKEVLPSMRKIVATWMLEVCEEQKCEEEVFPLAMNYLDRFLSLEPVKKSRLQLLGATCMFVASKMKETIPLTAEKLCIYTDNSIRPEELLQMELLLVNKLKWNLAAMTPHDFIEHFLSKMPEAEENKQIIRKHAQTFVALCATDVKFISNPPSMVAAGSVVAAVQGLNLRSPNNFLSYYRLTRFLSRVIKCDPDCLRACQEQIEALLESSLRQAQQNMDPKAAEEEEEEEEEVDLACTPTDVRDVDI

Turning to `O=c1[nH]ccc2c3cnc(Nc4ccc(N5CCNCC5)cn4)nc3n(C3CCCC3)c12` [Example 53, 9-Cyclopentyl-2-((5-(1-piperazinyl)-2-pyridinyl)amino)-7,9-dihydro-8H-pyrido[4′,3′:4,5]-pyrrolo[2,3-d]pyrimidin-8-one], the IC50 on Cdk4/CyclinD1 is 4.7 nM; at Cdk6/CyclinD3, 11 nM.

Take `Cc1nccc2c3cnc(Nc4ccc(N5CCNCC5)cn4)nc3n(C3CCCC3)c12` [Example 54, 9-cyclopentyl-8-methyl-N-(5-(1-piperazinyl)-2-pyridinyl)-9H-pyrido[4′,3′:4,5]pyrrolo[2,3-d]pyrimidin-2-amine]: the IC50 on Cdk4/CyclinD1 is 20 nM; at Cdk6/CyclinD3 it was 47 nM.

`CC1CCC(n2c3cnccc3c3cnc(Nc4ccc(N5CCNCC5)cn4)nc32)CC1` (stereo not shown) [Example 55, 9-(4-methylcyclohexyl)-N-(5-(1-piperazinyl)-2-pyridinyl)-9H-pyrido[4′,3′:4,5]pyrrolo[2,3-d]pyrimidin-2-amine]: the concentration for half-maximal inhibition (IC50) on Cdk4/CyclinD1 amounted to 1.2 nM; on Cdk6/CyclinD3 it was 4.4 nM.

`Fc1nccc2c3cnc(Nc4ccc(N5CCNCC5)cn4)nc3n(C3CCCC3)c12` [Example 57, 9-Cyclopentyl-8-fluoro-N-(5-(1-piperazinyl)-2-pyridinyl)-9H-pyrido[4′,3′:4,5]pyrrolo[2,3-d]pyrimidin-2-amine]: the IC50 at Cdk4/CyclinD1 was 2 nM; on Cdk6/CyclinD3, 17 nM.

As to `c1cc2c3cnc(Nc4ccc(N[C@@H]5CCNC5)cn4)nc3n(C3CCCC3)c2cn1` [Example 63], the results for the IC50 on Cdk4/CyclinD1 and at Cdk6/CyclinD3 were 3.4 nM and 20 nM, respectively.

With `c1cc2c3cnc(Nc4ccc(N[C@H]5CCNC5)cn4)nc3n(C3CCCC3)c2cn1` [Example 64], the IC50 at Cdk4/CyclinD1 stood at 2.8 nM; at Cdk6/CyclinD3, 24 nM.

In the case of `O=S1(=O)CCC(Nc2ccc(Nc3ncc4c5ccncc5n(C5CCCC5)c4n3)nc2)C1` (stereo not shown) [Example 65], the half-maximal inhibitory concentration (IC50) at Cdk4/CyclinD1 amounted to 9.6 nM; at Cdk6/CyclinD3, 24 nM.

`O=S1(=O)CCN(c2ccc(Nc3ncc4c5ccncc5n(C5CCCC5)c4n3)nc2)CC1` [Example 66]: the 50% inhibitory concentration (IC50) came to 5.4 nM at Cdk4/CyclinD1 and 73 nM on Cdk6/CyclinD3.

With `c1cc2c3cnc(Nc4ccc(NC5CCNCC5)cn4)nc3n(C3CCCC3)c2cn1` [Example 69], the 50% inhibitory concentration (IC50) on Cdk4/CyclinD1 is 17 nM; on Cdk6/CyclinD3, 31 nM.

Take `CNC1CCN(c2ccc(Nc3ncc4c5ccncc5n(C5CCCC5)c4n3)nn2)CC1` [Example 77]: the IC50 at Cdk4/CyclinD1 is 3 nM; on Cdk6/CyclinD3, 11 nM.

On to `O=S1(=O)CCC(Nc2ccc(Nc3ncc4c5ccncc5n(C5CCCC5)c4n3)nn2)C1` (stereo not shown) [Example 93], for which the IC50 amounted to 3.1 nM on Cdk4/CyclinD1 and 15.9 nM at Cdk6/CyclinD3.

For the molecule `O=S1(=O)CCN(c2ccc(Nc3ncc4c5ccncc5n(C5CCCC5)c4n3)nn2)CC1` [Example 94], the results for the IC50 on Cdk4/CyclinD1 and on Cdk6/CyclinD3 were 4.9 nM and 9.2 nM, respectively.

Regarding `c1cc2c3cnc(Nc4ccc(NC5CCNCC5)nn4)nc3n(C3CCCC3)c2cn1` [Example 96], the figures for the IC50 at Cdk4/CyclinD1 and on Cdk6/CyclinD3 were 16.2 nM and 12.4 nM, respectively.

As for `c1cc2c3cnc(Nc4ccc(NCC5CNC5)nn4)nc3n(C3CCCC3)c2cn1` [Example 97], the IC50 at Cdk4/CyclinD1 stood at 430 nM; on Cdk6/CyclinD3, 396 nM.

Take `c1cc2c3cnc(Nc4ccc(NCC5CCNC5)nn4)nc3n(C3CCCC3)c2cn1` (stereo not shown) [Example 98]: the IC50 is 2.5 nM at Cdk4/CyclinD1 and 26.6 nM at Cdk6/CyclinD3.

With `NCC1CCN(c2ccc(Nc3ncc4c5ccncc5n(C5CCCC5)c4n3)nn2)CC1` [Example 101, 4-Aminomethyl-1-(6-((9-cyclopentyl-9H-pyrido[4′,3′:4,5]pyrrolo[2,3-d]pyrimidin-2-yl)amino)-3-pyridazinyl)-piperidine], the IC50 on Cdk4/CyclinD1 amounted to 4 nM; on Cdk6/CyclinD3, 8.8 nM.

As for `OC1CCN(c2ccc(Nc3ncc4c5ccncc5n(C5CCCC5)c4n3)nn2)CC1` [Example 102], the values for the IC50 on Cdk4/CyclinD1 and at Cdk6/CyclinD3 were 3.1 nM and 11.1 nM, respectively.

As for `OCC1CCN(c2ccc(Nc3ncc4c5ccncc5n(C5CCCC5)c4n3)nn2)CC1` [Example 103], the IC50 at Cdk4/CyclinD1 came to 5.6 nM; on Cdk6/CyclinD3, 2.6 nM.

Turning to `O[C@@H]1CCCN(c2ccc(Nc3ncc4c5ccncc5n(C5CCCC5)c4n3)nn2)C1` [Example 104], the half-maximal inhibitory concentration (IC50) at Cdk4/CyclinD1 amounted to 3.3 nM; on Cdk6/CyclinD3 it was 14 nM.

Consider `O[C@H]1CCCN(c2ccc(Nc3ncc4c5ccncc5n(C5CCCC5)c4n3)nn2)C1` [Example 105], for which the IC50 on Cdk4/CyclinD1 was 6.7 nM; on Cdk6/CyclinD3 it was 7.1 nM.

As for `c1cc2c3cnc(Nc4ccc(N5CCOCC5)nn4)nc3n(C3CCCC3)c2cn1` [Example 106], the values for the IC50 at Cdk4/CyclinD1 and on Cdk6/CyclinD3 were 4 nM and 24.3 nM, respectively.

For the molecule `c1cc2c3cnc(Nc4ccc(N5CCCCC5)nn4)nc3n(C3CCCC3)c2cn1` [Example 107], the IC50 is 8.4 nM at Cdk4/CyclinD1 and 48 nM on Cdk6/CyclinD3.

Regarding `N[C@H]1CCN(c2ccc(Nc3ncc4c5ccncc5n(C5CCCC5)c4n3)nn2)C1` [Example 108], the results for the concentration for half-maximal inhibition (IC50) at Cdk4/CyclinD1 and on Cdk6/CyclinD3 were 12 nM and 15.7 nM, respectively.

With `N[C@@H]1CCN(c2ccc(Nc3ncc4c5ccncc5n(C5CCCC5)c4n3)nn2)C1` [Example 109], the IC50 is 1.9 nM on Cdk4/CyclinD1 and 11 nM at Cdk6/CyclinD3.

For `c1cc2c3cnc(Nc4ccc(N5CCCC5)nn4)nc3n(C3CCCC3)c2cn1` [Example 111], the results for the half-inhibitory concentration (IC50) at Cdk4/CyclinD1 and at Cdk6/CyclinD3 were 4.4 nM and 19.7 nM, respectively.

Regarding `NC1CCN(c2ccc(Nc3ncc4c5ccncc5n(C5CCCC5)c4n3)nn2)CC1` [Example 114], the figures for the IC50 on Cdk4/CyclinD1 and on Cdk6/CyclinD3 were 1.6 nM and 10 nM, respectively.

As to `c1cc2c3cnc(Nc4ccc(N5CCCNCC5)nn4)nc3n(C3CCCC3)c2cn1` [Example 117], the IC50 on Cdk4/CyclinD1 stood at 5.5 nM; at Cdk6/CyclinD3 it was 6.8 nM.

On to `Clc1nccc2c3cnc(Nc4ccc(N5CCNCC5)cn4)nc3n(C3CCCC3)c12` [Example 152, 8-Chloro-9-cyclopentyl-N-(5-(1-piperazinyl)-2-pyridinyl)-9H-pyrido[4′,3′:4,5]pyrrolo[2,3-d]pyrimidin-2-amine], for which the IC50 was 2 nM on Cdk4/CyclinD1 and 4.3 nM on Cdk6/CyclinD3.

Take `CN(C)C1CCN(c2ccc(Nc3ncc4c5ccnc(Cl)c5n(C5CCCC5)c4n3)nc2)CC1` [Example 153, 8-Chloro-9-cyclopentyl-N-(5-(4-(dimethylamino)-1-piperidinyl)-2-pyridinyl)-9H-pyrido[4′,3′:4,5]pyrrolo[2,3-d]pyrimidin-2-amine]: the half-inhibitory concentration (IC50) on Cdk4/CyclinD1 is 1 nM; on Cdk6/CyclinD3 it was 2.8 nM.

Regarding `CCC(C)(C)n1c2cnccc2c2cnc(Nc3ccc(N4CCC(N(C)C)CC4)nn3)nc21` [Example 156, N-(6-(4-(dimethylamino)-1-piperidinyl)-3-pyridazinyl)-9-(1,1-dimethylpropyl)-9H-pyrido[4′,3′:4,5]pyrrolo[2,3-d]pyrimidin-2-amine], the IC50 on Cdk4/CyclinD1 was determined as 7 nM; on Cdk6/CyclinD3 it was 14 nM.

For the molecule `CCC(C)(C)n1c2cnccc2c2cnc(Nc3ccc(N4CCNCC4)cn3)nc21` [Example 157, 9-(1,1-dimethylpropyl)-N-(5-(1-piperazinyl)-2-pyridinyl)-9H-pyrido-[4′,3′:4,5]pyrrolo[2,3-d]pyrimidin-2-amine], the results for the IC50 on Cdk4/CyclinD1 and on Cdk6/CyclinD3 were 30 nM and 25 nM, respectively.

For the molecule `CN(C)C1CC2CCC(C1)N2c1ccc(Nc2ncc3c4ccncc4n(C4CCCC4)c3n2)nc1` (stereo not shown) [Example 158, 9-cyclopentyl-N-(5-(3-(dimethylamino)-8-azabicyclo[321]oct-8-yl)-2-pyridinyl)-9H-pyrido[4′,3′:4,5]pyrrolo[2,3-d]pyrimidin-2-amine], the IC50 was 5.4 nM at Cdk4/CyclinD1 and 5.3 nM at Cdk6/CyclinD3.
